Results reported in patent publication US20040110758A1, “4,6-Diaminosubstituted-2-[oxy or aminoxy]-[1,3,5]triazines as protein tyrosine kinase inhibitors” (priority 2002, published 2004).

Experiments:
KDR [1] = target: T1, KDR (Homo sapiens, UniProt P35968); experiment: KDR Enzymatic Assay (fluorescence polarization competition immunoassay); assay type: biochemical; conditions: for IC50: 1.6 nM KDR, 10 μM ATP, 10 μg/ml poly(E4,Y), averages of three independent measurements, read-out: IC50 Enzyme; for protein tyrosine kinase (KDR) inhibition, potency in words: text commentary on Table 1
Experimental: KDR Enzymatic Assay. A fluorescence polarization competition immunoassay was used to determine the compound potency for KDR. The assay was performed in black 96-well microplates (LJL BioSystems). The assay buffer used was 100 mM HEPES, pH 7.5, 1 mM DTT, 0.01% (v/v) Tween-20. Compounds were diluted in assay buffer containing 4% DMSO just prior to the assay. […] The kinase reaction was initiated by adding 2 μl of 8 nM KDR in assay buffer.
The plates were incubated at room temperature for 5 min. At the end of the incubation, the reaction was quenched with 1.2 μl of 50 mM EDTA. Following a 5-min incubation, each well received 10 μl of a 1:1:3 mixture of anti-phosphotyrosine antibody, 10×, PTK green tracer, 10× (vortexed), FP dilution buffer, respectively (all from PanVera, cat. # P2837). The plate was covered, incubated for 30 min at room temperature and the fluorescence polarization was read on an ANALYST™ HT Assay Detection System (LJL Biosystems, Sunnyvale, Calif.). The instrument settings were: 485 nm excitation filter; 530 nm emission filter; Z height: middle of well; G factor: 0.93. […] The IC50 values reported are the averages of three independent measurements.
Target sequence in this assay (P35968 20-1356, species assumed): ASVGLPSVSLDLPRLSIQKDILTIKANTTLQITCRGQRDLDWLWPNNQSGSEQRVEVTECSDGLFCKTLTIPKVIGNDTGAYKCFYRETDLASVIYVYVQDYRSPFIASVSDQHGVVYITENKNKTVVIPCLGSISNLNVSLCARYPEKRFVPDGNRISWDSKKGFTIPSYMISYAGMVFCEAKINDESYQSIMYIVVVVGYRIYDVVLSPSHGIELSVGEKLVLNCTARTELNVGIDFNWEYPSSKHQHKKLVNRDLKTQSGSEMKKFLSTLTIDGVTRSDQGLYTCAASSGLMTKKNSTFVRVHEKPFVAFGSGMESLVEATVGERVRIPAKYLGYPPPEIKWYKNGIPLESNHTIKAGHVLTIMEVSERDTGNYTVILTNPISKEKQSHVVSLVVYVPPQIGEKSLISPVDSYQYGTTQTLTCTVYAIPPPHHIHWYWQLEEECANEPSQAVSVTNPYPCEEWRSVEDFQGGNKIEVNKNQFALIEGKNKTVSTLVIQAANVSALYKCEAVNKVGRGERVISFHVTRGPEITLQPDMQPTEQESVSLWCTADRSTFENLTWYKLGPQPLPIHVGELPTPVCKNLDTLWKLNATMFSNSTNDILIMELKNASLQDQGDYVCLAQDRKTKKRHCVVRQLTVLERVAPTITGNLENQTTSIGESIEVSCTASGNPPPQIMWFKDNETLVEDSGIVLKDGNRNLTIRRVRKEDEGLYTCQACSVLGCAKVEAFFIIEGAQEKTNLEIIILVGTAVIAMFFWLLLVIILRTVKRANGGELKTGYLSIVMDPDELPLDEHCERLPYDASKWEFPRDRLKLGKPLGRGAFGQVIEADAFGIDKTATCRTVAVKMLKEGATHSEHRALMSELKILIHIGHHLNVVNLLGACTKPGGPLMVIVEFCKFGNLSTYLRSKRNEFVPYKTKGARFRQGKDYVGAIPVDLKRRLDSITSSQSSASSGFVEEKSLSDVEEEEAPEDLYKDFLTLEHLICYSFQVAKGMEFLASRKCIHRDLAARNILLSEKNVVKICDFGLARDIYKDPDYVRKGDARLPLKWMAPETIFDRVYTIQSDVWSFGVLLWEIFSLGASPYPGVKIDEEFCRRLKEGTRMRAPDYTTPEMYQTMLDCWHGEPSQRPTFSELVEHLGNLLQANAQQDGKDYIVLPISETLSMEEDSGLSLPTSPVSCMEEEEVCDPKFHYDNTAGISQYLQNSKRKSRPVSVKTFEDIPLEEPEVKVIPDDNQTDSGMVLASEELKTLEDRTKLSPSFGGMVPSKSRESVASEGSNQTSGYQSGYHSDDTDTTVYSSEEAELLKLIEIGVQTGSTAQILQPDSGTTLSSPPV

KDR [2] = target: T1, KDR; experiment: KDR Cell-Based Assay (VEGF-stimulated MAP kinase activation in HUVEC); design: which express endogenous Flk-1(KDR); endogenous in cells; host or cells: HUVEC (human umbilical vein endothelial cells); conditions: compounds 30 minutes prior to 25 ng/ml VEGF for 10 minutes, phosphorylated MAP kinase immunoblot
Experimental: KDR Cell-Based Assay. To determine the effect of the test compounds on KDR function in cells, VEGF-stimulated MAP kinase activation in human umbilical vein endothelial cells (HUVEC), which express endogenous Flk-1(KDR), was examined. HUVECs were grown to confluence in EMB-2 endothelial cell media (Biowhittaker Inc., Walkersville, Md.) at 37° C. and 5% CO2. Confluent, quiescent HUVECs were treated with the test compounds 30 minutes prior to stimulation with 25 ng/ml VEGF for 10 minutes at 37° C. These cells were then lysed in HNTG buffer (50 mM HEPES, 150 mM NaCl, 1% triton-X-100, 1.5 mM MgCl2, 10% glycerol, 10 mM NaF, 1 mM EDTA, 10 mM sodium pyrophosphate, 1 uM PMSF and 250 uM NaVO4). Cell lysates (40 ug total protein) were separated by SDS-PAGE and transferred to nitrocellulose. Immunoblots were probed with a polyclonal antibody to phosphorylated MAP kinase (Cell Signaling Technologies, Woburn, Mass.) and alkaline phosphatase conjugated secondary antibody (Biorad Labs, Hercules, Calif.). Immunoblot detection was done by measuring the fluorescent product of the alkaline phosphatase reaction with the substrate 9H-(1,3-dichloro-9,9-dimethylacridin-2-one-7-yl) phosphate, diammonium salt (DDAO phosphate) (Molecular Probes, Eugene, Oreg.) using a Molecular Dynamics Typhoon Imaging system (Molecular Dynamics, Sunnyvale, Calif.). Quantitation of DDAO phosphate signal and IC50 determinations were done with Molecular Dynamics ImageQuant software.
Target sequence in this assay (P35968 20-1356): as the sequence (P35968 20-1356, species assumed) above

| Structure (SMILES) | IC50 (KDR [1]) [nM] | IC50 (KDR [2]) [nM] | protein tyrosine kinase (KDR) inhibition, potency in words (KDR [1]) |
| --- | --- | --- | --- |
| CCN(Cc1ccccc1)c1nc(O)nc(Nc2ccc3ncsc3c2)n1 [Example 1, 4-(Benzothiazol-6-ylamino)-6-(N-ethylbenzylamino)-[1,3,5]triazin-2-ol] | < 1000 | < 1000 |  |
| C[C@@H](Nc1nc(O)nc(Nc2ccc3ncsc3c2)n1)c1ccccc1 [Example 3, (R)-4-(Benzothiazol-6-ylamino)-6-(1-phenylethylamino)-[1,3,5]triazin-2-ol] | < 1000 | 1000 to 15000 | more potent than the corresponding S-enantiomer |
| C[C@H](Nc1nc(O)nc(Nc2ccc3ncsc3c2)n1)c1ccccc1 [Example 4, (S)-4-(Benzothiazol-6-ylamino)-6-(1-phenylethylamino)-[1,3,5]triazin-2-ol] | 1000 to 15000 |  |  |
| CC(C)(Nc1nc(O)nc(Nc2ccc3ncsc3c2)n1)c1ccccc1 [Example 5] | < 1000 | < 1000 | one of the most potent protein tyrosine kinase inhibitors tested |
| CN(CCc1ccccn1)c1nc(O)nc(Nc2ccc3ncsc3c2)n1 [Example 6, 4-(Benzothiazol-6-ylamino)-6-[methyl-(2-pyridyl-2-ylethyl)amino]-[1,3,5]triazin-2-ol] | < 1000 | 1000 to 15000 |  |
| Oc1nc(Nc2ccc3ncsc3c2)nc(N2CCCC2c2ccccc2)n1 (stereo not shown) [Example 8, 4-(Benzothiazol-6-ylamino)-6-(2-phenyl-pyrrolidin-1-yl)-[1,3,5]triazin-2-ol] | < 1000 | 1000 to 15000 |  |
| Oc1nc(Nc2ccc3ncsc3c2)nc(N2CCSC(c3ccccc3)C2)n1 (stereo not shown) [Example 9, 4-(Benzothiazol-6-ylamino)-6-(2-phenyl-thiomorpholin-4-yl)-[1,3,5]triazin-2-ol] | < 1000 | 1000 to 15000 | potent inhibitors |
| Oc1nc(Nc2ccc3ncsc3c2)nc(N2CCSCC2c2ccccc2)n1 (stereo not shown) [Example 10, 4-(Benzothiazol-6-ylamino)-6-(3-phenyl-thiomorpholin-4-yl)-[1,3,5]triazin-2-ol] | < 1000 | 1000 to 15000 | potent inhibitors |
| CN(c1ccc2cn[nH]c2c1)c1nc(O)nc(Nc2ccc3ncsc3c2)n1 [Example 11] | < 1000 | 1000 to 15000 |  |

Next, values leading:

| IC50 (KDR [1]) [nM] | IC50 (KDR [2]) [nM] | protein tyrosine kinase (KDR) inhibition, potency in words (KDR [1]) | Structure (SMILES) |
| --- | --- | --- | --- |
| 1000 to 15000 |  | less active than Examples 3 and 4 | Oc1nc(NCc2ccccc2)nc(Nc2ccc3ncsc3c2)n1 [Example 2, 4-(Benzothiazol-6-ylamino)-6-(benzylamino)-[1,3,5]triazin-2-ol] |
| < 1000 | 1000 to 15000 |  | CC(C)(Nc1nc(O)nc(Nc2ccc3ncccc3c2)n1)c1ccccc1 [Example 7, 4-(1-methyl-1-phenylethylamino)-6-(guinolin-6-ylamino)-[1,3,5]triazin-2-ol] |
| < 1000 | 1000 to 15000 |  | CC(C)(Nc1nc(NO)nc(Nc2ccc3ncsc3c2)n1)c1ccccc1 [Example 14] |
| 1000 to 15000 |  |  | CC(C)(Nc1nc(N)nc(Nc2ccc3ncsc3c2)n1)c1ccccc1 [Example 15, N-(Benzothiazol-6-yl)-N′-(1-methyl-1-phenylethyl)-[1,3,5]triazine-2,4,6-triamine] |
| 1000 to 15000 |  |  | CC(C)(Nc1ncnc(Nc2ccc3ncsc3c2)n1)c1ccccc1 [Example 16, N-(Benzothiazol-6-yl)-N′-(1-methyl-1-phenylethyl)-[1,3,5]triazine-2,4-diamine] |
| 1000 to 15000 |  |  | COc1nc(Nc2ccc3ncsc3c2)nc(NC(C)(C)c2ccccc2)n1 [Example 17, N-(Benzothiazol-6-yl)-6-methoxy-N′-(1-methyl-1-1-phenylethyl)-[1,3,5]triazine-2,4-diamine] |
| 1000 to 15000 |  |  | CC(C)(Nc1nc(Nc2ccc3ncsc3c2)nc(OCc2ccccc2)n1)c1ccccc1 [Example 18, N-(Benzothiazol-6-yl)-6-benzyloxy-N′-(1-methyl-1-phenylethyl)-[1,3,5]triazine-2,4-diamine] |
